In patent US20050142230A1, “Pharmic activity and manufacturing method of the production produced by six kinds of plant compound” (priority 2003, published 2005):

Test system: male white mice
Assay: Hypnosis effect taking orally (lost righting reflex half minute)
Format: in vivo
Conditions: for The sleep animals: 30 mg/kg, n=25
Description: The male white mice (weighing 18-22 g) were divided into groups at random. Every group had twenty five. Experimental group douched the stomach with the compound by 0.08, 0.3, 0.4 ml/10 g, pentobabital sodium 30 mg/kg, the control group gave the same volumn saline. Then put them into the constant temperature infant cabinet at 37° C. We observed the mumber of the mice sleep. The standard was the half minute continous lost righting reflexs (table 3 was the result). […] The compound wares had hypnosis effect.

## CCCC(C)C1(CC)C(=O)N=C([O-])NC1=O.[Na+] (centres unmarked) [Pentobabital sodium]
5′
  The sleep animals: 20TT
30′
  The sleep animals: 25TT
60′
  The sleep animals: 21TT
90′
  The sleep animals: 13
30 ml/kg as printed in text, mice
  Hypnosis effect (in words): let them all sleep
